Tested on: anticorps monoclonaux anti-MDP
Experiment: Competitive ELISA: inhibition of binding of MDP-lysine-peroxidase conjugate to captured monoclonal anti-MDP antibody
Set-up: species or system souris
Description: On a recours à la technique antérieurement. décrite dans l'article de BAHR et Coll. déjà mentionné, sous réserve de quelques modifications de détail. Les éléments essentiels de la méthodologie utilisée sont rappelés ci-après.
Les puits de plaques micro-ELISA (commercialisées par la société DYNATECH) sont tapissés avec des fractions Ig d'anticorps de chèvre anti-souris IgM, IgA ou IgG, par maintien en contact avec leurs parois d'une solution contenant 5 ug/ml de la fraction Ig pendant 3 heures à 4°C. Après lavage de la plaque avec une solution de PBS contenant 0,05 % de l'agent de dispersion commercialisé sous la dénomination TWEEN 20, on ajoute des dilutions des surnageants d'hybridomes producteurs d'anticorps anti-MDP aux différents puits et on incube pendant 2 heures à la température ambiante. Les fractions Ig facilitent la retenue des anticorps anti-MDP. Les plaques sont ensuite lavées et une solution de MDP-lysine couplé à de la péroxydase de raifort diluée au 1/1000 est ajoutée aux puits. Les plaques sont ensuite laissées au repos pendant la nuit à 4°C. Après lavage, on détermine les proportions de MDP-lysine-péroxydase fixées dans les puits, en mettant en oeuvre l'ortho-phénylène-diamine et de l'eau oxygénée en tant que substrat de la péroxydase. […]

| Compound | inhibitions exprimées par des activités (100 µl of MDP solution containing 100 ng, added together with MDP-peroxidase conjugate (1/1000), antibody diluted 1/100 = 100 % activity) [%] | inhibition (added under the same conditions together with the conjugate, amount not stated) |
| --- | --- | --- |
| CC(=O)N[C@H]1C(O)O[C@H](CO)[C@@H](O)[C@@H]1O[C@H](C)C(=O)N[C@@H](C)C(=O)N[C@H](CCC(=O)O)C(N)=O (stereo partly drawn) [MDP, M-acétyl-muramyl-L-alanyl-D-isoglutamine] | 31 | – |
| CC(=O)N[C@H]1C(O)O[C@H](CO)[C@@H](O)[C@@H]1O[C@H](C)C(=O)N[C@H](C)C(=O)N[C@H](CCC(=O)O)C(N)=O (stereo partly drawn) [MDP-DD, N-acétyl- muramyl- D-alanyl-D-isoglutamine] | – | aucune inhibition |

Source: patent EP0100734A1, “Process for the separation or purification of a sleep promoting factor from a biological source by immunological reaction of the antigen-antibody kind” (ANVAR Agence Nationale de Valorisation de la Recherche, priority 1982, dated 1984)
